Test results published in publication PMC8333425, “Discovery of a dual Ras and ARF6 inhibitor from a GPCR endocytosis screen” (Nature Communications, 2021).
“And” between values parts separate entries of the source, which are not always exact repeats. Equal entries are not always repeated.

Columns and labels:
PKC = PKC BRET sensor, AT1R-mediated; format: cell-based, human
Experimental: HEK293SL cells were seeded at a density of 7.5 × 10^5 cells per 100-mm dish and 24 h later, transiently transfected as such. For receptor internalization experiments, cells were transfected with 0.12 μg AT1R-RlucII, B2R-RlucII, or β2AR-RlucII and 0.48 μg of either rGFP-CAAX (to assess removal from the PM) or rGFP-FYVE (to assess accumulation in the endosomes). For β-arrestin recruitment assays, cells were transfected with 0.48 μg of receptor-YFP along with 0.12 μg of β-arrestin-RlucII. For β-arrestin/AP-2 binding experiments, cells were transfected with 1 μg Flag-AT1R, 1 μg β2-Adaptin-YFP, and 0.12 μg β-arrestin2-RlucII. […] For kinetics of β-arrestin recruitment or β-arrestin binding to receptor and AP-2 experiments, cells were serum starved for 30 min, pretreated with 21 (50 µM) or Barbadin (100 µM) for 30 min, stimulated with 100 nM AngII or 1 µM BK and BRET signals were monitored at indicated times using a Victor X Light plate reader (PerkinElmer). […] The BRET ratio was determined by calculating the ratio of the light emitted by YFP over the light emitted by the RlucII. […] For the kinetics of GTPase and PI3K/Akt activation, cells were serum starved, pretreated with 21 (50 µM) or Wortmannin (200 nM) for 30 min, stimulated with ligand (100 nM AngII or 100 ng/ml EGF) and BRET signals were monitored at indicated times. […]

B2R = test: Confocal microscopy of YFP-tagged B2R internalization; format: cell-based, human; conditions: 50 μM; BK
Experimental: One day before transfection, cells were seeded in 35-mm glass-bottom dishes (MatTek Corporation) at a density of 1 × 10^5 cells per dish. For the recordings of receptor internalization, HEK293 SL cells were transfected with 2 μg of AT1R-YFP. For the recordings of β-arrestin-2 recruitment to the receptor, HEK293SL cells were transfected with 50 ng of β-arrestin2-YFP and 250 ng of Flag-AT1R or HA-B2R. Forty-eight hours post-transfection, cells were serum starved, preincubated with DMSO (0.1% final concentration) or Rasarfin (50 μM) for 30 min at 37 °C. AT1R-expressing cells were stimulated with angiotensinII (AngII; 100 nM) and B2R-expressing cells were stimulated with bradykinin (BK; 1 μM) for 30 min (receptor-YFP) or 15 min (β-arrestin2-YFP). Cells were imaged with Zeiss LSM-510 and/or LSM-710 laser scanning confocal microscope. To detect YFP, […] and BP 505–550 nm emission filter. Images (2048 × 2048) were collected using a 63x oil immersion lens.

CC(C)C(=O)N1CCN(c2ccc(NC(=O)c3cc4ccccc4o3)cc2Cl)CC1 [Compound 21]
AT1R-mediated PKC activation (PKC; 50 μM): did not inhibit AT1R-mediated PKC activation | PKC BRET sensor signal (S_Fig.4b), single experiments (PKC; listed as Comp 21): 0.07767 and 0.069 and 0.0815 | B2R localization by microscopy (B2R): remained trapped at the PM
